Several values for one entry are separate records, joined by “and”; a condition that tells them apart may be missing. Equal entries are not always repeated.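 Protocol summary: plate cells (96-well), add compound at 5 concentrations, incubate 48 h, interpolate endpoints linearly. GI50 marks 50% less growth. TGI: concentration producing complete growth inhibition.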
Columns and labels:
Experiment in all cases: NCI tumour cell line growth inhibition, 48 h; in the data active = GI50 below about 0.43 µM; inactive = the rest
ACHN renal = system: ACHN renal
DMS 114 small cell lung = system: DMS 114 small cell lung
HOP-92 NSCLC = system: HOP-92 NSCLC
SN12K1 renal = system: SN12K1 renal
SNB-78 CNS = system: SNB-78 CNS
HCT-15 colon = system: HCT-15 colon
MALME-3M melanoma = system: MALME-3M melanoma
T-47D breast = system: T-47D breast
HOP-62 NSCLC = system: HOP-62 NSCLC
786-0 renal = system: 786-0 renal
M19-MEL melanoma = system: M19-MEL melanoma
MDA-MB-231 breast = system: MDA-MB-231 breast
SR leukemia = system: SR leukemia
P388/ADR leukemia = system: P388/ADR leukemia
MDA-N = system: MDA-N
SK-MEL-28 melanoma = system: SK-MEL-28 melanoma
SNB-75 CNS = system: SNB-75 CNS
UO-31 renal = system: UO-31 renal
A549 NSCLC = system: A549 NSCLC
A498 renal = system: A498 renal
SK-OV-3 ovarian = system: SK-OV-3 ovarian
UACC-257 melanoma = system: UACC-257 melanoma
PC-3 prostate = system: PC-3 prostate
RPMI-8226 leukemia = system: RPMI-8226 leukemia
SN12C renal = system: SN12C renal
LXFL 529 NSCLC = system: LXFL 529 NSCLC
OVCAR-5 ovarian = system: OVCAR-5 ovarian
P388 leukemia = system: P388 leukemia
BT-549 breast = system: BT-549 breast
OVCAR-8 ovarian = system: OVCAR-8 ovarian
NCI-H23 lung = system: NCI-H23 lung
HT29 colon = system: HT29 colon
NCI-H226 lung = system: NCI-H226 lung
HOP-18 NSCLC = system: HOP-18 NSCLC
EKVX NSCLC = system: EKVX NSCLC
SW-620 colon = system: SW-620 colon
SF-295 CNS = system: SF-295 CNS
SF-539 CNS = system: SF-539 CNS
NCI/ADR-RES ovarian = system: NCI/ADR-RES ovarian
KM12 colon = system: KM12 colon
HS 578T breast = system: HS 578T breast
NCI-H522 lung = system: NCI-H522 lung
SF-268 CNS = system: SF-268 CNS
CCRF-CEM leukemia = system: CCRF-CEM leukemia
XF 498 CNS = system: XF 498 CNS
RXF 393 renal = system: RXF 393 renal
U251 CNS = system: U251 CNS
DU-145 prostate = system: DU-145 prostate
MCF7 breast = system: MCF7 breast
HL-60(TB) leukemia = system: HL-60(TB) leukemia
COLO 205 colon = system: COLO 205 colon
LOX IMVI melanoma = system: LOX IMVI melanoma
KM20L2 colon = system: KM20L2 colon
CAKI-1 renal = system: CAKI-1 renal
DLD-1 colon = system: DLD-1 colon
TK-10 renal = system: TK-10 renal
M14 melanoma = system: M14 melanoma
OVCAR-3 ovarian = system: OVCAR-3 ovarian
MDA-MB-435 = system: MDA-MB-435
HCC-2998 colon = system: HCC-2998 colon
IGROV1 ovarian = system: IGROV1 ovarian
SK-MEL-2 melanoma = system: SK-MEL-2 melanoma
UACC-62 melanoma = system: UACC-62 melanoma

COC(=O)C12OCC34C(CC5C(C)=CC(=O)C(O)C5(C)C3C(O)C1O)OC(=O)C(OC(=O)CC(C)C)C24 (stereo not drawn)
2.72 nM: TGI (SN12K1 renal)
107 nM and 207 nM: TGI (786-0 renal)
5.49 nM: TGI (BT-549 breast)
5.03 nM: TGI (MDA-N)
24.7 nM: TGI (MDA-MB-231 breast)
12.9 nM and 68.9 nM: TGI (M14 melanoma)
82.5 nM and 104 nM: TGI (LXFL 529 NSCLC)
160 nM and 477 nM: TGI (TK-10 renal)
0.948 nM: TGI (HS 578T breast)
12.1 nM: TGI (PC-3 prostate)
50.6 nM: TGI (SR leukemia)
300 nM and 174 nM: TGI (ACHN renal)
1.18 nM: TGI (NCI-H522 lung)
6.97 nM: TGI (MDA-MB-435)
2.21 nM: TGI (MCF7 breast)
17.4 nM and 119 nM and 65.1 nM: TGI (HOP-92 NSCLC)
46.3 nM and 274 nM and 219 nM: TGI (HOP-18 NSCLC)
active: GI50 (ACHN renal) 19.3 nM | GI50 (DMS 114 small cell lung) 133 nM | GI50 (HOP-92 NSCLC) 44.2 nM and 50 nM | GI50 (SN12K1 renal) 0.382 nM | GI50 (SNB-78 CNS) 74.8 nM and 50 nM | GI50 (HCT-15 colon) 56.5 nM and 50 nM | GI50 (MALME-3M melanoma) < 35.6 nM | GI50 (HOP-62 NSCLC) 43.9 nM and 50 nM | GI50 (786-0 renal) 22.3 nM | GI50 (M19-MEL melanoma) < 37.7 nM | GI50 (P388/ADR leukemia) 65.7 nM | GI50 (SK-MEL-28 melanoma) < 35.2 nM and 50 nM | GI50 (SNB-75 CNS) 82.5 nM and 50 nM | GI50 (UO-31 renal) 256 nM and 63.7 nM | GI50 (A549 NSCLC) < 39.9 nM and 50 nM | GI50 (A498 renal) < 57.5 nM | GI50 (SK-OV-3 ovarian) 300 nM and 50 nM | GI50 (UACC-257 melanoma) 78.8 nM and 50 nM | GI50 (RPMI-8226 leukemia) < 28.9 nM | GI50 (SN12C renal) 82.9 nM and 50 nM | GI50 (LXFL 529 NSCLC) 3.84 nM | GI50 (OVCAR-5 ovarian) 82.5 nM and 58.6 nM | GI50 (P388 leukemia) 50 nM | GI50 (OVCAR-8 ovarian) < 39.1 nM and 50 nM | GI50 (NCI-H23 lung) < 46 nM and 50 nM | GI50 (HT29 colon) 58.8 nM | GI50 (NCI-H226 lung) < 34.5 nM | GI50 (HOP-18 NSCLC) 9.07 nM and 44.1 nM and 50 nM | GI50 (EKVX NSCLC) 61.2 nM | GI50 (SW-620 colon) 42 nM and 50 nM | GI50 (SF-295 CNS) 77 nM | GI50 (SF-539 CNS) < 34 nM | GI50 (NCI/ADR-RES ovarian) 288 nM | GI50 (KM12 colon) 51.1 nM and 50 nM | GI50 (SF-268 CNS) 67.1 nM and 50 nM | GI50 (CCRF-CEM leukemia) < 50.3 nM and 50 nM | GI50 (XF 498 CNS) 41 nM and 50 nM | GI50 (RXF 393 renal) 42.7 nM and 50 nM | GI50 (U251 CNS) < 34.2 nM | GI50 (MCF7 breast) 0.602 nM | GI50 (HL-60(TB) leukemia) < 41.7 nM and 50 nM | GI50 (COLO 205 colon) 425 nM and 50 nM | GI50 (LOX IMVI melanoma) < 33.6 nM and 50 nM | GI50 (KM20L2 colon) 47.9 nM and 50 nM | GI50 (CAKI-1 renal) 120 nM and 87.6 nM | GI50 (DLD-1 colon) 63.3 nM and 50 nM | GI50 (TK-10 renal) 16.6 nM | GI50 (M14 melanoma) 3.4 nM | GI50 (OVCAR-3 ovarian) < 51.8 nM | GI50 (HCC-2998 colon) < 28.1 nM | GI50 (IGROV1 ovarian) < 28.8 nM and 50 nM | GI50 (SK-MEL-2 melanoma) 56.2 nM and 316 nM | GI50 (UACC-62 melanoma) 47.8 nM and 50 nM
6.27 nM and < 79.1 nM: TGI (A498 renal)
6 nM: TGI (T-47D breast)
4.25 nM: TGI (DU-145 prostate)

Source: PubChem BioAssay (NCI)
